Experimental data taken from patent publication US10174001B2, “Crystals of 5-cyclopropyl-2-((1-(3-fluorobenzyl)-1H-indol-5-yl)amino)nicotinic acid” (FUJIFILM Toyama Chemical Co., Ltd., priority 2015, dated 2019).
Values after ≈ are worked out from the molar mass of the structure shown.

What was measured:
keratinocyte = details: cited from earlier work
[1] = Test Example 3: Hygroscopicity (rate of weight change and crystal form); format: physicochemical; details: for Stability (hygroscopicity test): 25° C., relative humidity of 75 or 97%
Method: The α-form crystal and the β-form crystal were preserved under the conditions of 25° C. and a relative humidity of 75 or 97%.
Sampling was carried out over time and the weights of crystals were measured to determine rates of weight changes. Additionally, crystal forms were measured by the infrared absorption spectrum.
Rate of weight change (%)=((B−A)/A)×100
A: Crystal weight before the test started
B: Crystal weight after the test started

[2] = Test Example 4: Stability (HPLC purity and crystal form on storage); format: physicochemical; details: for Purity (%): HPLC
Method: The α-form crystal and the β-form crystal were preserved under the conditions of 40 or 60° C. and a relative humidity of 75%.
Twelve weeks after the test started, the purity was measured by HPLC. Additionally, crystal forms were measured by the infrared absorption spectrum.
HPLC Measurement conditions
Measurement wavelength: 270 nm
Column: Ascentis Express C18, inner diameter 3.0 mm×length 150 mm
Column temperature: 40° C.
Mobile phase: 0.1% phosphoric acid/(acetonitrile/water=60/40) solution

[3] = Test Example 2: Physical Stability (mixed α/β crystals stirred in solvent, crystal form by infrared absorption spectrum); format: physicochemical
Method: The α-form crystal (1 part by weight) and the β-form crystal (1 part by weight) were mixed, suspended in a solvent (ethyl acetate/ethanol=5/1.5 parts by weight) and stirred at 26, 70 or 100° C.
Sampling was carried out over time and crystal forms were measured by the infrared absorption spectrum.

[4] = Test Example 1: Solubility in various organic solvents; format: physicochemical; details: for solubility at 24 h: organic solvent or mixture, thermodynamic from solid; for solubility at 24 h / Solubility: stirred for 24 hours
Method: The α-form crystal (about 100 mg) or the β-form crystal (about 100 mg) was suspended in various organic solvents (about 1 mL) and stirred for 24 hours. Impurities were filtered off using a membrane filter and the filtrate was analyzed by HPLC to determine the solubility.

SMILES	Crystal form ([1]; 25° C. 75% RH, 0 hr)	Rate of weight change (%) ([1]; 25° C. 75% RH, 0 hr)	Crystal form ([1]; 25° C. 75% RH, 2 weeks)	Rate of weight change (%) ([1]; 25° C. 75% RH, 2 weeks)	Crystal form ([1]; 25° C. 75% RH, 4 weeks)	Rate of weight change (%) ([1]; 25° C. 75% RH, 4 weeks)	Crystal form ([1]; 25° C. 75% RH, 8 weeks)	Rate of weight change (%) ([1]; 25° C. 75% RH, 8 weeks)	Crystal form ([1]; 25° C. 75% RH, 12 weeks)	Rate of weight change (%) ([1]; 25° C. 75% RH, 12 weeks)	Crystal form ([1]; 25° C. 97% RH, 0 hr)	Rate of weight change (%) ([1]; 25° C. 97% RH, 0 hr)	Crystal form ([1]; 25° C. 97% RH, 2 weeks)	Rate of weight change (%) ([1]; 25° C. 97% RH, 2 weeks)	Crystal form ([1]; 25° C. 97% RH, 4 weeks)	Rate of weight change (%) ([1]; 25° C. 97% RH, 4 weeks)	Crystal form ([1]; 25° C. 97% RH, 8 weeks)	Rate of weight change (%) ([1]; 25° C. 97% RH, 8 weeks)	Crystal form ([1]; 25° C. 97% RH, 12 weeks)	Rate of weight change (%) ([1]; 25° C. 97% RH, 12 weeks)	also measured
O=C(O)c1cc(C2CC2)cnc1Nc1ccc2c(ccn2Cc2cccc(F)c2)c1 [Compound A, 5-Cyclopropyl-2-((1-(3-fluorobenzyl)-1H-indol-5-yl)amino)nicotinic acid]	–	–	–	–	–	–	–	–	–	–	–	–	–	–	–	–	–	–	–	–	Antiproliferative activity on keratinocyte (keratinocyte): excellent antiproliferative activity on keratinocyte
O=C(O)c1cc(C2CC2)cnc1Nc1ccc2c(ccn2Cc2cccc(F)c2)c1 [α-Form crystal, 5-cyclopropyl-2-((1-(3-fluorobenzyl)-1H-indol-5-yl)amino)nicotinic acid]	α	0.00	α	0.08	α	0.08	α	0.24	α	0.22	α	0.00	α	0.13	α	0.17	α	0.38	α	0.32	Stability (hygroscopicity test) [1]: stable; Crystal form ([2]; 40° C. 75% RH, 0 hr): α; Purity (%) ([2]; 40° C. 75% RH, 0 hr): 99.4%; Crystal form ([2]; 40° C. 75% RH, 12 weeks): α; Purity (%) ([2]; 40° C. 75% RH, 12 weeks): 99.5%; Crystal form ([2]; 60° C. 75% RH, 0 hr): α; Purity (%) ([2]; 60° C. 75% RH, 0 hr): 99.4%; Crystal form ([2]; 60° C. 75% RH, 12 weeks): α; Purity (%) ([2]; 60° C. 75% RH, 12 weeks): 99.5%; Crystal transition ([3]; mixed crystals stirred at 26, 70 or 100° C.): transitioned to the β-form crystal; solubility at 24 h ([4]; 2-propanol): 3.5 mg/mL (≈ 8.72 mM); solubility at 24 h ([4]; acetone): 55 mg/mL (≈ 137 mM); solubility at 24 h ([4]; acetonitrile): 3.1 mg/mL (≈ 7.72 mM); solubility at 24 h ([4]; ethanol): 8.8 mg/mL (≈ 21.9 mM); solubility at 24 h ([4]; ethyl acetate): 19.7 mg/mL (≈ 49.1 mM); solubility at 24 h ([4]; isopropyl acetate): 11.5 mg/mL (≈ 28.6 mM); solubility at 24 h ([4]; methyl ethyl ketone): 63.1 mg/mL (≈ 157 mM); solubility at 24 h ([4]; methyl tert-butyl ether): 10.1 mg/mL (≈ 25.2 mM)
O=C(O)c1cc(C2CC2)cnc1Nc1ccc2c(ccn2Cc2cccc(F)c2)c1 [β-Form crystal, 5-cyclopropyl-2-((1-(3-fluorobenzyl)-1H-indol-5-yl)amino)nicotinic acid]	β	0.00	β	0.07	β	0.07	β	0.20	β	0.18	β	0.00	β	0.10	β	0.11	β	0.26	β	0.25	Stability (hygroscopicity test) [1]: stable; Crystal form ([2]; 40° C. 75% RH, 0 hr): β; Purity (%) ([2]; 40° C. 75% RH, 0 hr): 99.6%; Crystal form ([2]; 40° C. 75% RH, 12 weeks): β; Purity (%) ([2]; 40° C. 75% RH, 12 weeks): 99.7%; Crystal form ([2]; 60° C. 75% RH, 0 hr): β; Purity (%) ([2]; 60° C. 75% RH, 0 hr): 99.6%; Crystal form ([2]; 60° C. 75% RH, 12 weeks): β; Purity (%) ([2]; 60° C. 75% RH, 12 weeks): 99.7%; Relative stability of crystal forms ([3]; concluded from crystal transition in suspension): more stable than the α-form crystal; Solubility ([4]; 2-Propanol): 3.0 mg/mL (≈ 7.47 mM); Solubility ([4]; Acetone): 48.9 mg/mL (≈ 122 mM); Solubility ([4]; Acetonitrile): 2.7 mg/mL (≈ 6.73 mM); Solubility ([4]; Ethanol): 6.8 mg/mL (≈ 16.9 mM); Solubility ([4]; Ethyl acetate): 16.8 mg/mL (≈ 41.8 mM); Solubility ([4]; Isopropyl acetate): 9.8 mg/mL (≈ 24.4 mM); Solubility ([4]; Methyl ethyl ketone): 55.3 mg/mL (≈ 138 mM); Solubility ([4]; Methyl tert-butyl ether): 8.1 mg/mL (≈ 20.2 mM); Relative stability of crystal forms ([4]; concluded from solubility): more stable than the α-form crystal; Solubility compared between crystal forms ([4]; various organic solvents): lower than the solubility of the α-form crystal
